Assay results published in ChEMBL document CHEMBL2424540, “Synthesis and pharmacological evaluation of novel 1-(piperidin-4-yl)-1H-benzo[d]imidazol-2(3H)-one derivatives as potential antimicrobial agents” (2013).

How the values were obtained:
Format in all cases: functional
Aspergillus clavatus = test: Antifungal activity against Aspergillus clavatus MTCC 1323 at 50 mg/ml after 24 hrs by disk agar diffusion technique; settings: MTCC 1323, 24 h, read-out: DIZ
Candida albicans = test: Antifungal activity against Candida albicans MTCC 227 at 50 mg/ml after 24 hrs by disk agar diffusion technique; settings: MTCC 227, 24 h, read-out: DIZ
Pseudomonas aeruginosa = test: Antibacterial activity against Pseudomonas aeruginosa MTCC 424 at 50 mg/ml after 24 hrs by disk agar diffusion technique; settings: MTCC 424, 24 h, read-out: DIZ
Escherichia coli = test: Antibacterial activity against Escherichia coli MTCC 443 at 50 mg/ml after 24 hrs by disk agar diffusion technique; settings: MTCC 443, 24 h, read-out: DIZ
Streptococcus pyogenes = test: Antibacterial activity against Streptococcus pyogenes MTCC 442 at 50 mg/ml after 24 hrs by disk agar diffusion technique; settings: MTCC 442, 24 h, read-out: DIZ
Staphylococcus aureus = test: Antibacterial activity against Staphylococcus aureus MTCC 96 at 50 mg/ml after 24 hrs by disk agar diffusion technique; settings: MTCC 96, 24 h, read-out: DIZ

SMILES: CCOC(=O)Cn1c(=O)n(C2CCN(C3CCc4cc(OC)c(OC)cc43)CC2)c2ccc(Cl)cc21 (centres undefined)
- zone of inhibition at 50000 µg/mL (Aspergillus clavatus): 14 mm
- zone of inhibition at 50000 µg/mL (Candida albicans): 15 mm
- zone of inhibition at 50000 µg/mL (Pseudomonas aeruginosa): 11 mm
- zone of inhibition at 50000 µg/mL (Escherichia coli): 12 mm
- zone of inhibition at 50000 µg/mL (Streptococcus pyogenes): 16 mm
- zone of inhibition at 50000 µg/mL (Staphylococcus aureus): 14 mm

SMILES: CCOC(=O)n1c(=O)n(C2CCN(C3CCc4cc(OC)c(OC)cc43)CC2)c2ccc(Cl)cc21 (centres undefined)
- zone of inhibition at 50000 µg/mL (Aspergillus clavatus): 21 mm
- zone of inhibition at 50000 µg/mL (Candida albicans): 7 mm
- zone of inhibition at 50000 µg/mL (Pseudomonas aeruginosa): 13 mm
- zone of inhibition at 50000 µg/mL (Escherichia coli): 15 mm
- zone of inhibition at 50000 µg/mL (Streptococcus pyogenes): 14 mm
- zone of inhibition at 50000 µg/mL (Staphylococcus aureus): 11 mm

SMILES: CCN(CC)C(=O)n1c(=O)n(C2CCN(C3CCc4cc(OC)c(OC)cc43)CC2)c2ccc(Cl)cc21 (centres undefined)
- zone of inhibition at 50000 µg/mL (Aspergillus clavatus): 11 mm
- zone of inhibition at 50000 µg/mL (Candida albicans): 10 mm
- zone of inhibition at 50000 µg/mL (Pseudomonas aeruginosa): 8 mm
- zone of inhibition at 50000 µg/mL (Escherichia coli): 13 mm
- zone of inhibition at 50000 µg/mL (Streptococcus pyogenes): 11 mm
- zone of inhibition at 50000 µg/mL (Staphylococcus aureus): 20 mm

SMILES: COc1cc2c(cc1OC)C(N1CCC(n3c(=O)n(CCCl)c4cc(Cl)ccc43)CC1)CC2 (centres undefined)
- zone of inhibition at 50000 µg/mL (Aspergillus clavatus): 13 mm
- zone of inhibition at 50000 µg/mL (Candida albicans): 17 mm
- zone of inhibition at 50000 µg/mL (Pseudomonas aeruginosa): 11 mm
- zone of inhibition at 50000 µg/mL (Escherichia coli): 10 mm
- zone of inhibition at 50000 µg/mL (Streptococcus pyogenes): 16 mm
- zone of inhibition at 50000 µg/mL (Staphylococcus aureus): 18 mm

SMILES: COc1cc2c(cc1OC)C(N1CCC(n3c(=O)n(CCCN(C)C)c4cc(Cl)ccc43)CC1)CC2 (centres undefined)
- zone of inhibition at 50000 µg/mL (Aspergillus clavatus): 10 mm
- zone of inhibition at 50000 µg/mL (Candida albicans): 18 mm
- zone of inhibition at 50000 µg/mL (Pseudomonas aeruginosa): 16 mm
- zone of inhibition at 50000 µg/mL (Escherichia coli): 14 mm
- zone of inhibition at 50000 µg/mL (Streptococcus pyogenes): 18 mm
- zone of inhibition at 50000 µg/mL (Staphylococcus aureus): 13 mm

SMILES: COCn1c(=O)n(C2CCN(C3CCc4cc(OC)c(OC)cc43)CC2)c2ccc(Cl)cc21 (centres undefined)
- zone of inhibition at 50000 µg/mL (Aspergillus clavatus): 15 mm
- zone of inhibition at 50000 µg/mL (Candida albicans): 24 mm
- zone of inhibition at 50000 µg/mL (Pseudomonas aeruginosa): 15 mm
- zone of inhibition at 50000 µg/mL (Escherichia coli): 14 mm
- zone of inhibition at 50000 µg/mL (Streptococcus pyogenes): 13 mm
- zone of inhibition at 50000 µg/mL (Staphylococcus aureus): 10 mm

SMILES: COc1cc2c(cc1OC)C(N1CCC(n3c(=O)n(Cc4ccccc4)c4cc(Cl)ccc43)CC1)CC2 (centres undefined)
- zone of inhibition at 50000 µg/mL (Aspergillus clavatus): 17 mm
- zone of inhibition at 50000 µg/mL (Candida albicans): 25 mm
- zone of inhibition at 50000 µg/mL (Pseudomonas aeruginosa): 13 mm
- zone of inhibition at 50000 µg/mL (Escherichia coli): 11 mm
- zone of inhibition at 50000 µg/mL (Streptococcus pyogenes): 10 mm
- zone of inhibition at 50000 µg/mL (Staphylococcus aureus): 11 mm

SMILES: COc1cc2c(cc1OC)C(N1CCC(n3c(=O)n(Cc4ccc(Cl)cc4)c4cc(Cl)ccc43)CC1)CC2 (centres undefined)
- zone of inhibition at 50000 µg/mL (Aspergillus clavatus): 19 mm
- zone of inhibition at 50000 µg/mL (Candida albicans): 16 mm
- zone of inhibition at 50000 µg/mL (Pseudomonas aeruginosa): 9 mm
- zone of inhibition at 50000 µg/mL (Escherichia coli): 19 mm
- zone of inhibition at 50000 µg/mL (Streptococcus pyogenes): 9 mm
- zone of inhibition at 50000 µg/mL (Staphylococcus aureus): 17 mm

SMILES: COc1cc2c(cc1OC)C(N1CCC(n3c(=O)n(Cc4ccc([N+](=O)[O-])cc4)c4cc(Cl)ccc43)CC1)CC2 (centres undefined)
- zone of inhibition at 50000 µg/mL (Aspergillus clavatus): 22 mm
- zone of inhibition at 50000 µg/mL (Candida albicans): 17 mm
- zone of inhibition at 50000 µg/mL (Pseudomonas aeruginosa): 10 mm
- zone of inhibition at 50000 µg/mL (Escherichia coli): 17 mm
- zone of inhibition at 50000 µg/mL (Streptococcus pyogenes): 11 mm
- zone of inhibition at 50000 µg/mL (Staphylococcus aureus): 13 mm

SMILES: CC1(C)S[C@@H]2[C@H](NC(=O)[C@H](N)c3ccccc3)C(=O)N2[C@H]1C(=O)O [AMPICILLIN]
- zone of inhibition at 50000 µg/mL (Pseudomonas aeruginosa): 20 mm
- zone of inhibition at 50000 µg/mL (Escherichia coli): 20 mm
- zone of inhibition at 50000 µg/mL (Streptococcus pyogenes): 19 mm
- zone of inhibition at 50000 µg/mL (Staphylococcus aureus): 18 mm

SMILES: O=C(N[C@H](CO)[C@H](O)c1ccc([N+](=O)[O-])cc1)C(Cl)Cl [CHLORAMPHENICOL]
- zone of inhibition at 50000 µg/mL (Pseudomonas aeruginosa): 21 mm
- zone of inhibition at 50000 µg/mL (Escherichia coli): 23 mm
- zone of inhibition at 50000 µg/mL (Streptococcus pyogenes): 20 mm
- zone of inhibition at 50000 µg/mL (Staphylococcus aureus): 21 mm

SMILES: OC(Cn1cncn1)(Cn1cncn1)c1ccc(F)cc1F [FLUCONAZOLE]
- zone of inhibition at 50000 µg/mL (Aspergillus clavatus): 24 mm
- zone of inhibition at 50000 µg/mL (Candida albicans): 24 mm
